In US9062078B2, “Substituted 7-azabicyles and their use as orexin receptor modulators” (priority 2013, dated 2015):
Like-named read-outs stand apart in the source and are kept apart here.

Columns and labels:
[1] = target: rat orexin 1 receptor (Rattus norvegicus, UniProt P56718); assay: Rat orexin 1 receptor radioligand binding (competitive, [3H]-SB674042, HEK293 cell preparations)
[2] = target: human orexin 2 receptor (Homo sapiens (Human), UniProt O43614); assay: Human orexin 2 receptor radioligand binding (competitive, [3H]-EMPA, HEK293 cell preparations)
[3] = human orexin 2 receptor, [3H]-EMPA competition binding, read-out: hOX2 Ki (nm)
[4] = rat orexin 1 receptor, [3H]-SB674042 competition binding, read-out: rOX1 Ki (nm)

Sequence of human orexin 2 receptor (O43614 whole entry): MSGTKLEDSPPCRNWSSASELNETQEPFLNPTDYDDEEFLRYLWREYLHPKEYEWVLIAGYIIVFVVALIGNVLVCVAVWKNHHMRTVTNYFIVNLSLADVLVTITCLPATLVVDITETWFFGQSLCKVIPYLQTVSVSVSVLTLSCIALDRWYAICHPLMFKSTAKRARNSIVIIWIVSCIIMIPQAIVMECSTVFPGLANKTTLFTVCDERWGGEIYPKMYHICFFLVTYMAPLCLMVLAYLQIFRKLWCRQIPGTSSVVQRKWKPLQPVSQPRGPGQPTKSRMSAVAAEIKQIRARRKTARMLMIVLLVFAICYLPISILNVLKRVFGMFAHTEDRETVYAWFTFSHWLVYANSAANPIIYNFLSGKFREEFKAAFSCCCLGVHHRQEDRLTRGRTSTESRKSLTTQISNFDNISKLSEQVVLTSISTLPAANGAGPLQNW

Row | Structure (SMILES) | Ki [2, 3] [nM] | also measured
1 | COc1c(F)cccc1C(=O)N1C2CCC1C(Nc1ncc(C(F)(F)F)cn1)C2 (racemic) [Example 226, (±)-(3-fluoro-2-methoxyphenyl)(2-(5-(trifluoromethyl)pyrimidin-2-yl)amino)-7-azabicyclo[2.2.1]heptan-7-yl)methanone] | > 10000 | Ki ([1]; rOX1 Ki (nm)): > 10000 nM
2 | COc1c(F)cccc1C(=O)N1C2CCC1C(COc1ccc(Br)cn1)C2 (racemic) [Example 50, (±)-(2-(((5-bromopyridin-2-yl)oxy)methyl)-7-azabicyclo[2.2.1]heptan-7-yl)(3-fluoro-2-methoxyphenyl)methanone] | 4400 | Ki [1, 4]: 460 nM
3 | Cc1nc2sccn2c1C(=O)N1[C@@H]2CC[C@H]1[C@H](Nc1cnc(C(F)(F)F)cn1)C2 [Example 259, (6-methylimidazo[2,1-b]thiazol-5-yl)((1S,2R,4R)-2-((5-(trifluoromethyl)pyrazin-2-yl)amino)-7-azabicyclo[2.2.1]heptan-7-yl)methanone] | > 10000 | Ki [1, 4]: > 10000 nM
4 | COc1c(F)cccc1C(=O)N1C2CCC1C(Nc1cnc3ccccc3n1)C2 (single isomer, unassigned) [Example 206, (±)-(3-fluoro-2-methoxyphenyl)(2-(quinoxalin-2-ylamino)-7-azabicyclo[2.2.1]heptan-7-yl)methanone] | 1500 | Ki [1, 4]: 1200 nM
5 | COc1c(F)cccc1C(=O)N1C2CCC1C(COc1ccc(F)cn1)C2 (racemic) [Example 107, (±)-((3-fluoro-2-methoxyphenyl)(2-(((5-fluoropyridin-2-yl)oxy)methyl)-7-azabicyclo[2.2.1]heptan-7-yl)methanone] | 2200 | 
6 | COc1c(F)cccc1C(=O)N1C2CCC1C(COc1ccc(F)cn1)C2 (racemic) [Example 173, (±)-(3-fluoro-2-methoxyphenyl)(2-(((5-fluoropyridin-2-yl)oxy)methyl)-7-azabicyclo[2.2.1]heptan-7-yl)methanone] | 3000 | 
7 | O=C(c1cc(F)ccc1-n1nccn1)N1[C@@H]2CC[C@H]1[C@H](Nc1cnc(C(F)(F)F)cn1)C2 [Example 256, (5-fluoro-2-(2H-1,2,3-triazol-2-yl)phenyl)((1S,2R,4R)-2-((5-(trifluoromethyl)pyrazin-2-yl)amino)-7-azabicyclo[2.2.1]heptan-7-yl)methanone] | 1100 | 
8 | Cc1cccc(C(=O)N2[C@@H]3CC[C@H]2[C@H](Nc2cnc(C(F)(F)F)cn2)C3)c1-c1ncccn1 [Example 273, (3-methyl-2-(pyrimidin-2-yl)phenyl)((1S,2R,4R)-2-((5-(trifluoromethyl)pyrazin-2-yl)amino)-7-azabicyclo[2.2.1]heptan-7-yl)methanone] | 328 | 
9 | O=C(c1ccccc1-n1nccn1)N1C2CCC1C(Nc1cnc(C(F)(F)F)cn1)C2 (single isomer, unassigned) [Example 183a] |  | Ki ([2]; read-out: hOX2 Ki (nm)): > 10000 nM
10 | Cc1cccc(C(=O)N2[C@@H]3CC[C@H]2[C@H](Nc2ncc(C(F)(F)F)cn2)C3)c1-c1ccccn1 [Example 293, (3-methyl-2-(pyridin-2-yl)phenyl)((1S,2R,4R)-2-((5-(trifluoromethyl)pyrimidin-2-yl)amino)-7-azabicyclo[2.2.1]heptan-7-yl)methanone] | 1100 | 
11 | Cc1ccc(-n2nccn2)c(C(=O)N2[C@H]3CC[C@@H]2[C@@H](COc2ccccn2)C3)n1 [Example 5B, (6-methyl-3-(2H-1,2,3-triazol-2-yl)pyridin-2-yl)((1R,2S,4S)-2-((pyridin-2-yloxy)methyl)-7-azabicyclo[2.2.1]heptan-7-yl)methanone] |  | Ki ([2]; read-out: hOX2 Ki (nm)): > 10000 nM
12 | Cc1ccc(-n2nccn2)c(C(=O)N2[C@@H]3CC[C@H]2[C@H](COc2ccccn2)C3)n1 [Example 5A, (6-methyl-3-(2H-1,2,3-triazol-2-yl)pyridin-2-yl)((1S,2R,4R)-2-((pyridin-2-yloxy)methyl)-7-azabicyclo[2.2.1]heptan-7-yl)methanone] |  | Ki ([2]; hOX2 Ki (nm)): 428 nM
13 | Cc1ccc(-n2nccn2)c(C(=O)N2C3CCC2C(COc2ccccn2)C3)n1 (racemic) [Example 4, (±)-(6-methyl-3-(2H-1,2,3-triazol-2-yl)pyridin-2-yl)(2-((pyridin-2-yloxy)methyl)-7-azabicyclo[2.2.1]heptan-7-yl)methanone] |  | Ki ([2]; hOX2 Ki (nm)): 927 nM
14 | COc1cccc(-c2ncccn2)c1C(=O)N1[C@@H]2CC[C@H]1[C@H](Nc1cnc(C(F)(F)F)cn1)C2 [Example 289, (2-methoxy-6-(pyrimidin-2-yl)phenyl)((1S,2R,4R)-2-((5-(trifluoromethyl)pyrazin-2-yl)amino)-7-azabicyclo[2.2.1]heptan-7-yl)methanone] | 173 | 
15 | O=C(c1c(F)cccc1-c1ncccn1)N1[C@@H]2CC[C@H]1[C@H](Nc1cnc(C(F)(F)F)cn1)C2 [Example 290, (2-fluoro-6-(pyrimidin-2-yl)phenyl)((1S,2R,4R)-2-((5-(trifluoromethyl)pyrazin-2-yl)amino)-7-azabicyclo[2.2.1]heptan-7-yl)methanone] | 558 | 
16 | CCOc1ccc2cccnc2c1C(=O)N1[C@@H]2CC[C@H]1[C@H](Nc1cnc(C(F)(F)F)cn1)C2 [Example 291, (7-ethoxyquinolin-8-yl)((1S,2R,4R)-2-((5-(trifluoromethyl)pyrazin-2-yl)amino)-7-azabicyclo[2.2.1]heptan-7-yl)methanone] | 425 | 
17 | CCOc1ccccc1C(=O)N1C2CCC1C(COc1nc(C)cc(C)n1)C2 (racemic) [Example 42, (±)-(2-(((4,6-dimethylpyrimidin-2-yl)oxy)methyl)-7-azabicyclo[2.2.1]heptan-7-yl)(2-ethoxyphenyl)methanone] |  | Ki ([2]; hOX2 Ki (nm)): 253 nM
18 | Cc1ccc(-n2nccn2)c(C(=O)N2C3CCC2C(COc2ccccn2)C3)n1 [Example 6, (6-methyl-3-(2H-1,2,3-triazol-2-yl)pyridin-2-yl)((1S,2R,4R)-2-((pyridin-2-yloxy)methyl)-7-azabicyclo[2.2.1]heptan-7-yl)methanone] |  | Ki ([2]; hOX2 Ki (nm)): 428 nM
19 | O=C(c1cccc(F)c1-n1nccn1)N1[C@@H]2CC[C@H]1[C@H](Nc1ccc(C(F)(F)F)cn1)C2 [Example 294, (3-fluoro-2-(2H-1,2,3-triazol-2-yl)phenyl)((1S,2R,4R)-2-((5-(trifluoromethyl)pyridin-2-yl)amino)-7-azabicyclo[2.2.1]heptan-7-yl)methanone] | 1200 | 
20 | Cc1cccc(C(=O)N2[C@@H]3CC[C@H]2[C@H](Nc2ccc(C(F)(F)F)cn2)C3)c1-n1nccn1 [Example 295, (3-methyl-2-(2H-1,2,3-triazol-2-yl)phenyl)((1S,2R,4R)-2-((5-(trifluoromethyl)pyridin-2-yl)amino)-7-azabicyclo[2.2.1]heptan-7-yl)methanone] | 257 | 
21 | O=C(c1cc(F)ccc1-c1ncccn1)N1[C@@H]2CC[C@H]1[C@H](COc1ccccn1)C2 [Example 1, (5-fluoro-2-(pyrimidin-2-yl)phenyl)((1S,2R,4R)-2-((pyridin-2-yloxy)methyl)-7-azabicyclo[2.2.1]heptan-7-yl)methanone] | 276 | 
22 | Cc1ccc(-n2nccn2)c(C(=O)N2[C@@H]3CC[C@H]2[C@H](COc2ccc(F)cn2)C3)c1 [Example 10A, ((1S,2R,4R)-2-(((5-fluoropyridin-2-yl)oxy)methyl)-7-azabicyclo[2.2.1]heptan-7-yl)(5-methyl-2-(2H-1,2,3-triazol-2-yl)phenyl)methanone] | 32 | 
23 | O=C(c1cccc(F)c1-c1cnccn1)N1[C@@H]2CC[C@H]1[C@H](Nc1cnc(C(F)(F)F)cn1)C2 [Example 265, (3-fluoro-2-(pyrazin-2-yl)phenyl)-((1S,2R,4R)-2-((5-(trifluoromethyl)pyrazin-2-yl)amino)-7-azabicyclo[2.2.1]heptan-7-yl)methanone] | 188 | 
24 | Cc1cccc(C(=O)N2[C@@H]3CC[C@H]2[C@H](Nc2ccc(C(F)(F)F)cn2)C3)c1-c1ncco1 [Example 296, (3-methyl-2-(oxazol-2-yl)phenyl)((1S,2R,4R)-2-((5-(trifluoromethyl)pyridin-2-yl)amino)-7-azabicyclo[2.2.1]heptan-7-yl)methanone] | 114 | 
25 | CCOc1ccc2ccccc2c1C(=O)N1[C@@H]2CC[C@H]1[C@H](Nc1cnc(C(F)(F)F)cn1)C2 [Example 239, (2-ethoxynaphthalen-1-yl)((1S,2R,4R)-2-((5-(trifluoromethyl)pyrazin-2-yl)amino)-7-azabicyclo[2.2.1]heptan-7-yl)methanone] | 490 | 
26 | CCOc1ncc2ccccc2c1C(=O)N1[C@@H]2CC[C@H]1[C@H](Nc1cnc(C(F)(F)F)cn1)C2 [Example 246, (3-ethoxyisoquinolin-4-yl)((1S,2R,4R)-2-((5-(trifluoromethyl)pyrazin-2-yl)amino)-7-azabicyclo[2.2.1]heptan-7-yl)methanone] | 1020 | 
27 | Cc1cccc(C(=O)N2[C@@H]3CC[C@H]2[C@H](Nc2ncc(C(F)(F)F)cn2)C3)c1-c1ncco1 [Example 283, (3-methyl-2-(oxazol-2-yl)phenyl)((1S,2R,4R)-2-((5-(trifluoromethyl)pyrimidin-2-yl)amino)-7-azabicyclo[2.2.1]heptan-7-yl)methanone] | 417 | 
28 | O=C(c1cccc(F)c1-n1nccn1)N1[C@@H]2CC[C@H]1[C@H](Nc1cnc(C(F)(F)F)cn1)C2 [Example 252, (3-fluoro-2-(2H-1,2,3-triazol-2-yl)phenyl)((1S,2R,4R)-2-((5-(trifluoromethyl)pyrazin-2-yl)amino)-7-azabicyclo[2.2.1]heptan-7-yl)methanone] | 1230 | 
29 | Cc1cccc(C(=O)N2[C@@H]3CC[C@H]2[C@H](Nc2ncc(C(F)(F)F)cn2)C3)c1-c1ncccn1 [Example 281, (3-methyl-2-(pyrimidin-2-yl)phenyl)((1S,2R,4R)-2-((5-(trifluoromethyl)pyrimidin-2-yl)amino)-7-azabicyclo[2.2.1]heptan-7-yl)methanone] | 1200 | 
30 | Cc1ccc(-n2nccn2)c(C(=O)N2C3CCC2C(COc2ccc(F)cn2)C3)c1 (racemic) [Example 9, (±)-(2-(((5-fluoropyridin-2-yl)oxy)methyl)-7-azabicyclo[2.2.1]heptan-7-yl)(5-methyl-2-(2H-1,2,3-triazol-2-yl)phenyl)methanone] | 57 | 
